B1: OPG: secreted decoy receptor that can reduce the RANKL activity (protein, UniProt O00300 22-401, looked up)
Tumor necrosis factor …: ETFPPKYLHYDEETSHQLLCDKCPPGTYLKQHCTAKWKTVCAPCPDHYYTDSWHTSDECLYCSPVCKELQYVKQECNRTHNRVCECKEGRYLEIEFCLKHRSCPPGFGVVQAGTPERNTVCKRCPDGFFSNETSSKAPCRKHTNCSVFGLLLTQKGNATHDNICSGNSESTQKCGIDVTLCEEAFFRFAVPTKFTPNWLSVLVDNLPGTKVNAESVERIKRQHSSQEQTFQLLKLWKHQNKDQDIVKKIIQDIDLCENSVQRHIGHANLTFEQLRSLMESLPGKKVGAEDIEKTIKACKPSDQILKLLSLWRIKNGDQDTLKGLMHALKHSKTYHFPKTVTQSLKKTIRFLHSFTMYKLYQKLFLEMIGNQVQSVKISCL

How the values were obtained:
[1] = system: RANKL; test: RANKL expression in purified mammary epithelial cells (qRT-PCR, Western blot); assay type: in vivo, mouse; details: nulliparous wild type females, 3 days after implantation/oral gavage
Method: a,b, MPA induces RANKL expression in mammary epithelial cells. Nulliparous wild type females were treated with oral gavage of DMBA or oil vehicle, s.c. implanted with slow-release MPA pellets, or treated with sham surgery. a, RANKL mRNA was determined in purified mammary epithelial cells by qRT-PCR 3 days after implantation/oral gavage. Data are shown as fold change compared to sham treatment+/−sem. n=3 mice per group. b, Expression of soluble (s) RANKL protein (19 kDa) was assayed on cell lysates from purified mammary epithelial cells by Western blot 3 days after treatment with oil vehicle, DMBA, MPA, or sham surgery. β-actin is shown as a loading control. […] Data are shown as percentage of tumor-free mice after the last DMBA challenge. No significant difference was found between the Cre+ and the Cre− control groups. Median tumor onset for Cre^+ controls was 9 days, for Cre^− controls 11 days, and for RANK^Δmam females 30 days after the last DMBA treatment. d, Representative Southern blot of MPA/DMBA-induced mammary tumors derived from RANK^flox/+; MMTV-Cre+ and RANK^flox/Δ; MMTV-Cre+ (RANK^Δmam) females. […]
Total RNA of tumors was prepared using the RNeasy Mini Kit (Qiagen), according to the manufacturer's instructions. Total RNA (2 μg) was subjected to quantitative (q)RT-PCR analysis. […]

[2] = system: human SKBR3 breast cancer cells; test: Soft-Agar Colony Formation Assay; assay type: cell-based; details: OPG (1 μg/ml) with RANKL (1 μg/ml)
Method: a, Western blotting for phosphorylated (P) IKKα, total IKKα, phosphorylated (P) p65 NFκB, total p65 NFκB, phosphorylated (P) IκBα, and total IκBα in isolated primary mouse mammary gland epithelial cells (MECs) in response to RANKL stimulation (1 μg/ml). […] is shown as loading control. b, Western blotting for IKKα, IKKβ, IKKγ, phosphorylated (P) p65 NFκB, total p65 NFκB, phosphorylated (P) IκBα, and total IκBα in pooled late stage mammary adenocarconimas (n=4 for each lane) that developed in control, RANK^Δmam, and IKKα^Δmam females. β-actin is shown as loading control c, Expression of RANK, CyclinD1, and p21 mRNA in late stage mammary adenocacinomas that developed in control, RANK^Δmam, and IKKα^Δmam females. Expression was determined by qRT-PCR. Data are mean values+/−sem. n=4 per group. d, Soft-Agar Colony Formation Assay. Growth of human SKBR3 breast cancer cells in soft agar in response to stimulation with RANKL (1 μg/ml) or EGF (100 ng/ml). […] Apoptosis was detected by immunostaining for active Caspase 3. f, Apoptotic nuclei of epithelial cells (arrows) are shown for representative mammary gland sections. Magnifications ×40. g, Quantification of mammary epithelial apoptosis. A minimum of 5000 nuclei was counted for each mouse. […]

Molecule | RANKL mRNA and protein expression in mammary epithelial cells [1] | RANKL-induced colony formation in soft agar [2]
Cc1c2ccccc2c(C)c2c1ccc1ccccc12 [DMBA, dimethylbenz[a]anthracene] | not | 
B1 |  | prevented

From US20130316374A1, “BREAST CANCER DIAGNOSTICS” (IMBA - INSTITUT FUR MOLEKULARE BIOTECHNOLOGIE GMBH, priority 2010, published 2013)
